Test results reported in patent US6514989B1, “Aromatic and heteroaromatic substituted 1,2,4-triazolo pyridine derivatives” (Hoffmann-La Roche Inc., priority 2001, dated 2003).

Tests used:
[1] = biological target: T1, human adenosine A1 receptor (Homo sapiens, UniProt P30542); test: Human adenosine A1 receptor radioligand binding assay ([3H]-DPCPX, SPA, CHO cell membranes); conditions: recombinant human A1 receptor expressed in CHO cells; [3H]-DPCPX 0.6 nM; Ki from IC50 by Cheng-Prussoff equation; read-out: hA1 Ki
T1 construct: expressed in transfected cells; host or cells: CHO cells, semliki forest virus expression system; membrane preparation
T1 sequence (P30542 1-326): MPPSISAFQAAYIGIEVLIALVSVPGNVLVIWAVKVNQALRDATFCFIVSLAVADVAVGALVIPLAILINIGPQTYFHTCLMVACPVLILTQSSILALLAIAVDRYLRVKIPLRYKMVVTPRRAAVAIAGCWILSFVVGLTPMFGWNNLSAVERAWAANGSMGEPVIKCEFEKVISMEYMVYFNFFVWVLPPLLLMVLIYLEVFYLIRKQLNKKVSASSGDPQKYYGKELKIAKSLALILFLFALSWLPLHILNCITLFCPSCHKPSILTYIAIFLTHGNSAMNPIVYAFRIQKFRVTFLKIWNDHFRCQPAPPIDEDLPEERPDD
Protocol: Human Adenosine A^1 Receptor
The gene encoding human adenosinie A1 receptor was recombinantly introduced and expressed in chinese hamster ovary (CHO) cells using the semliki forest virus expression system. Cells were harvested, washed twice by centrifugation, homogenized and again washed by centrifugation. The final washed membrane pellet was suspended in a Tris (50 mM) buffer containing 120 mM NaCl, 5 mM KCl, 2 mM CaCl2 and 10 mM MgCl2 (pH 7.4) (buffer A). The [^3H]-DPCPX (([propyl-3H]8-cyclopentyl-1,3-dipropyxanthine); 0.6 nM) binding assay was carried out in 96-well plates in the presence of 2.5 μg of membrane protein, 0.5 mg of Ysi-poly-1-lysine SPA beads and 0.1 U adenosine deaminase in a final volume of 200 μl of buffer A. Non-specific binding was defined using xanthine amine congener (XAC; 2 μM). Compounds were tested at 10 concentrations from 10 μM-0.3 nM. All assays were conducted in duplicate and repeated at least two times. Assay plates were incubated for 1 hour at room temperature before centrifugation and then bound ligand determined using a Packard Topcount scintillation counter. IC50 values were calculated using a non-linear curve fitting program and Ki values calculated using the Cheng-Prussoff equation.
(§1) In accordance with the invention, it has been shown that compounds of formula I have a high affinity toward the A2A receptor. In Table I below specific values of prepared compounds are described, Values of KiHA2A and KiHA1 are shown in Table I for compounds of formula 1. A low Ki value is indicative of a particular compound's high affinity toward a particular receptor and conversely a higher Ki value is indicative of a lower affinity for that compound toward a particular receptor. […] Generally speaking, compounds that have a higher HA1/HA2A ratio are able to give a substantially complete blockade of the HA2A receptor without substantially affecting the A1 receptor.

[2] = biological target: T2, human adenosine A2a receptor (Homo sapiens, UniProt P29274); test: Human adenosine A2a receptor radioligand binding assay ([125I]-AB-MECA, CHO cell membranes); conditions: for Selectivity A1/A2a: ratio obtained by dividing KiHA1 by KiHA2A; for Ki: recombinant human A2a receptor expressed in CHO cells, Ki from IC50 by Cheng-Prussoff equation, read-out: hA2a Ki
T2 construct: expressed in transfected cells; host or cells: CHO cells, semliki forest virus expression system; membrane preparation
T2 sequence (P29274 whole entry): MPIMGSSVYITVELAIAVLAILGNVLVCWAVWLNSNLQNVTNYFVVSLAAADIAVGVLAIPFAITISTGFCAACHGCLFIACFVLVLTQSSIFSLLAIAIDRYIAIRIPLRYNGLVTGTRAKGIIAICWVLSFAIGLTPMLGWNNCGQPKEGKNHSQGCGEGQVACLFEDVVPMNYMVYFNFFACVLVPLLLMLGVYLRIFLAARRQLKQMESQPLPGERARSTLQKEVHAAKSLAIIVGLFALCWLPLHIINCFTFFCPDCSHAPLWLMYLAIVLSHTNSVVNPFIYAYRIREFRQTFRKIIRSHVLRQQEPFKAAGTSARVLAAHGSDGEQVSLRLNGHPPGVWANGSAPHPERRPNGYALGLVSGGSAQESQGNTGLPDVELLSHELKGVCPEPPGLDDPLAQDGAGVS
Protocol: Human Adenosine A2a Receptor
The gene encoding human adenosine A2a receptor was recombinantly introduced and expressed in chinese hamster ovary (CHO) cells using the semliki forest virus expression system. Cells were harvested, washed twice by centrifugation, homogenized and again washed by centrifugation. The final washed membrane pellet was suspended in a Tris (50 mM) buffer containing 120 mM NaCl, 5 mM KCl, 2 mM CaCl2 and 10 mM MgCl2 (pH 7.4) (buffer A). The [^125I]-AB-MECA ([N(6)-(4-amino-3-iodobenzyl)-5′-N-methylcarbamoyl-adenosine]; 0.05 nM) binding assay was carried out in 96-well a plates in the presence of 20 μg of membrane protein and 0.1 U adenosine deaminase in a final volume of […] of buffer A. Non-specific binding was defined using xanthine amine congener (XAC; 2 μM). Compounds were tested at 10 concentrations from 10 μM-0.3 nM. All assays were conducted in duplicate and repeated at least two times. Assay plates were incubated for 1 hour at room temperature before filtration through Whatman Unifilter GF/C 96-well filter plates (preincubated with 0.3% polyethyleneimine). Filters were washed 3 times with 0.3 ml of cold (4° C.) Tris (50 mM)—NaC […]
[…] 1 (120 mM) buffer (pH 7.4). Microscint 40 scintillation fluid (50 μl) was added to each well and the wells sealed. After gentle shaking for 20 min, plates were counted on a Packard Topcount scintillation counter. IC50 values were calculated using a non-linear curve fitting program and Ki values calculated using the Cheng-Prussoff equation.
as §1

Ki [1] [nM]	Selectivity A1/A2a [2]	Ki [2] [nM]	SMILES
2250	9.8	230	COc1ccc(-c2cccs2)n2nc(NC(=O)c3ccccc3Cl)nc12 [Example 13, 2-Chloro-N-(8-methoxy-5-thiophen-2-yl-[1,2,4]triazolo[1,5-a]pyridin-2-yl)-benzamide]
4940	24.6	201	COc1cccc(C(=O)Nc2nc3c(OC)ccc(-c4cccs4)n3n2)c1 [Example 19, 3-Methoxy-N-(8-methoxy-5-thiophen-2-yl-[1,2,4]triazolo[1,5-a]pyridin-2-yl)-benzamide]
1760	16.5	107	COc1cccc(-c2ccc(OC)c3nc(NC(=O)c4ccc(C)s4)nn23)c1 [Example 27, 5-Methyl-thiophene-2-carboxylic acid [8-methoxy-5-(3-methoxy-phenyl)-[1,2,4]triazolo[1,5-a]pyridin-2-yl]-amide]
